Measured values published in PubChem BioAssay AID743443 (The Scripps Research Institute Molecular Screening Center, 2014).
The source made the active and inactive calls. No rule for the calls is given here.

biological target: Sphingosine 1-phosphate receptor 5 (Homo sapiens) (UniProt Q9H228); assay: S1P5 receptor antagonists, late-stage follow-up, selectivity assay for S1PR3 antagonist project, cell-based, FRET, dose response (AID 743443)
Sequence (Q9H228 whole entry, looked up): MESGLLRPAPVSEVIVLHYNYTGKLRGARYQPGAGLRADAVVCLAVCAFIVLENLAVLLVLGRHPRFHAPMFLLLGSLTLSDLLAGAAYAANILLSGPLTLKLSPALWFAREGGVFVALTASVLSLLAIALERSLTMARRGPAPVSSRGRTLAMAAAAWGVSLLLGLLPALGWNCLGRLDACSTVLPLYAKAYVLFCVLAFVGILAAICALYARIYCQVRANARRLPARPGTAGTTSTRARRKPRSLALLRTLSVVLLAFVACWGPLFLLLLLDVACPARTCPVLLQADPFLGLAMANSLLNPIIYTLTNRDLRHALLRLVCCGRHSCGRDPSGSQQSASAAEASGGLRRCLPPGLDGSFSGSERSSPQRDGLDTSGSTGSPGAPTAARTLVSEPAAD

| Compound | IC50 |
| --- | --- |
| O=C(NC(c1ccc(Cl)c(Cl)c1)c1nc(-c2ccccc2)no1)c1cccc(Cl)c1 (stereo not given) | inactive |
| O=C(NC(c1ccc(Cl)cc1)c1nc(-c2ccccn2)no1)c1cccc(Cl)c1 (stereo not given) | > 28.2 µM (inactive) |
| O=C(NC(c1cccc(Cl)c1)c1nc(-c2ccccc2)no1)c1cc(Cl)cc(Cl)c1 (stereo not given) | > 28.2 µM (inactive) |
| O=C(NC(c1nc(-c2ccccc2)no1)C1CCOCC1)c1ccc(Cl)c(Cl)c1 (stereo not given) | > 28.2 µM (inactive) |
| Cc1ccc(C(=O)NC(c2ccccc2)c2nc(-c3ccccc3)no2)cc1 (stereo not given) | > 28.2 µM (inactive) |
| O=C(NC(c1ccc(Cl)cc1)c1nc(-c2ccccc2)no1)c1cccc(Cl)c1 (stereo not given) | > 28.2 µM (inactive) |
| O=C(c1cccc(Cl)c1)N(CCO)C(c1ccc(Cl)c(Cl)c1)c1nc(-c2ccccc2)no1 (stereo not given) | 9.9 µM |
| O=C(NC(c1ccc(Cl)cc1)c1nc(-c2ccccc2)no1)c1ccc(Cl)c(Br)c1 (stereo not given) | > 28.2 µM (inactive) |
| O=C(NC(c1ccc(Br)cc1)c1nc(-c2ccccc2)no1)c1ccc(Cl)c(Cl)c1 (stereo not given) | > 28.2 µM (inactive) |
| O=C(NC(c1ccc(Cl)cc1)c1nc(-c2ccccc2)no1)c1cccc(Br)c1 (stereo not given) | inactive |
| COc1ccc(C(=O)NC(c2ccccc2)c2nc(-c3ccccc3)no2)cc1 (stereo not given) | > 28.2 µM (inactive) |
| O=C(NC(c1ccccc1)c1nc(-c2ccccc2)no1)c1cccc(Cl)n1 (stereo not given) | inactive |
| O=C(NC(c1cccc(Cl)c1)c1nc(-c2ccccc2)no1)c1ccc(Cl)c(Cl)c1 (stereo not given) | > 28.2 µM (inactive) |
| O=C(NC(c1ccccc1)c1nc(-c2ccccc2)no1)c1ccc(Cl)cc1 (stereo not given) | > 28.2 µM (inactive) |
| O=C(NC(c1ccc(Cl)cc1)c1nc(-c2ccccc2)no1)c1ccc(Cl)c(Cl)c1 (stereo not given) | > 28.2 µM (inactive) |
| O=C(NC(Cc1ccccc1)c1nc(-c2ccccc2)no1)c1cccc(Cl)c1 (stereo not given) | inactive |
| O=C(NC(c1cccc(Cl)c1)c1nc(-c2ccccc2)no1)c1cccc(Cl)c1 (stereo not given) | 5.1 µM |
| O=C(NC(c1ccc(Cl)cc1)c1nc(-c2cccc(Cl)c2)no1)c1cccc(Cl)c1 (stereo not given) | > 28.2 µM (inactive) |
| O=C(NC(c1ccccc1)c1nc(-c2ccccc2)no1)c1cccc(Cl)c1 (stereo not given) | > 28.2 µM (inactive) |
| CCc1ccc(C(NC(=O)c2cccc(Cl)c2)c2nc(-c3ccccc3)no2)cc1 (stereo not given) | > 28.2 µM (inactive) |
| O=C(NC(c1ccc(Cl)c(Cl)c1)c1nc(-c2ccccc2)no1)c1ccc(Cl)c(Cl)c1 (stereo not given) | > 28.2 µM (inactive) |
| O=C(NC(c1ccccc1)c1nc(-c2ccccc2)no1)c1cccc(Br)c1 (stereo not given) | > 28.2 µM (inactive) |
| O=C(NC(c1ccc(Cl)c(Cl)c1)c1nc(-c2ccccc2)no1)c1ccc(Cl)cc1 (stereo not given) | inactive |
| O=C(NC(c1ccc(Cl)c(Cl)c1)c1nc(-c2ccccc2)no1)c1ccccc1 (stereo not given) | > 28.2 µM (inactive) |
| N#Cc1ccc(C(=O)NC(c2ccc(Cl)c(Cl)c2)c2nc(-c3ccccc3)no2)cc1 (stereo not given) | inactive |
